# From the SangsterLogP compilation
# What was measured:
# [1] = not given; remark: listed apart in the source
# [2] = method code SF-GLC, from DOI: 10.1007/s002679900238, PMID: 10486045
# [3] = method code SF, from DOI: 10.1016/0378-5173(90)90261-2; conditions: pH 3.0
# [4] = not given; remark: listed apart in the source
# [5] = not given; remark: listed apart in the source
# [6] = not given; remark: listed apart in the source
# [7] = not given; remark: listed apart in the source
# [8] = method code SF-AS, from DOI: 10.1016/s0090-9556(25)07961-9, PMID: 6130927
# [9] = method code SF-AS, from DOI: 10.1080/10826079508009280; conditions: pH 7.0
# [10] = method code SF-AS, from DOI: 10.1021/jf60167a006
# [11] = method code SF-HPLC, from DOI: 10.1021/jm00109a018, PMID: 2033591; conditions: pH 7.0
# [12] = not given; remark: listed apart in the source
# [13] = method code SF-HPLC, from DOI: 10.1002/hlca.19880710534; conditions: pH 7.4
# [14] = method code SF-AS, from DOI: 10.1016/0006-2952(80)90068-4, PMID: 6775639
# [15] = method code SF-AS, from DOI: 10.1021/jf950378u
# [16] = from Tehrany, E.A.; Desobry, S. (2005). Comparison between the different calculation methods of partition coefficient of aroma compounds with a difference chemical classes in octanol/water system. …
# [17] = method code SF-HPLC, from DOI: 10.1002/jps.22717, PMID: 21837649; conditions: pH 7.4
# [18] = method code SF, from DOI: 10.1248/cpb.18.708; conditions: pH 6.4
# [19] = method code SF-AS, from DOI: 10.1211/0022357001773940, PMID: 10757413; conditions: pH 7.4
# [20] = method code SF, from DOI: 10.1248/cpb.42.1525, PMID: 7923475
# [21] = method code SF-AS, from DOI: 10.1021/jf60220a002
# [22] = method code SF-AS, from Korenman, Y. (1973). Extraction of p-halophenols. Zh. Prikl. Khim., 46(11)2754-2755.; conditions: pH 7.4
# [23] = not given; remark: listed apart in the source
# [24] = method code SF-AS, from Brown, J.; Yu, N.; Cory, M.; Bicknell, R.; Taylor, D. (1978). In vivo evaluation of the radiosensitizing and cytotoxic properties of newly synthesized electron-affinic drugs. 3, 206-211.
# [25] = method code SF-AS, from DOI: 10.1081/jlc-100101494
# [26] = method code SF-AS, from DOI: 10.1021/jf60217a021, PMID: 659709
# [27] = method code SF-AS, from DOI: 10.2307/3575639, PMID: 7313077; conditions: pH 7.4
# [28] = not given; remark: listed apart in the source
# [29] = not given; remark: listed apart in the source
# [30] = method code SF-RC, from DOI: 10.1016/j.nucmedbio.2014.03.023, PMID: 24768149; conditions: pH 7.4
# [31] = not given; remark: listed apart in the source
# [32] = not given; remark: listed apart in the source
# [33] = method code SF-HPLC, from DOI: 10.3109/03639045.2012.690417, PMID: 22670797
# [34] = method code SF-AS, from DOI: 10.1139/y89-042, PMID: 2547502; conditions: pH 7.4
# [35] = from Villegas-Navarro, A.; Rodriguez, M. (1984). Structure-activity relationships between quinone moieties and inhibition of sodium transport. In Kuchar, M. (Ed.) QSAR in Design of Bioactive Compounds. …
# [36] = method code SF-AS, from DOI: 10.1021/jm00128a017, PMID: 2754702; conditions: pH 7.4
# [37] = method code SF-HPLC, from DOI: 10.1124/dmd.30.12.1497, PMID: 12433825; conditions: pH 7.4
# [38] = not given; remark: listed apart in the source
# [39] = method code SF, from PMID: 3261785
# [40] = method code SF-RC, from DOI: 10.1021/jm00360a016, PMID: 6854590
# [41] = method code SF-AS, from PMID: 3774812; conditions: pH 4.0
# [42] = method code SF-CR, from PMID: 15170; conditions: pH 3.0
# [43] = method code SF, from PMID: 7429676; conditions: pH 7.4
# [44] = not given; remark: listed apart in the source
# [45] = not given; remark: listed apart in the source
# [46] = method code SF-GLC, from DOI: 10.1016/0045-6535(95)00311-u
# [47] = method code SF-AS, from DOI: 10.1016/j.bmc.2011.10.017, PMID: 22094277; conditions: pH 7.4
# [48] = method code …, from Kristl, A.; Vesnaver, G.; Mrhar, A.; Kozjek, F. (1993). Evaluation of partitioning and solubility data for some guanine derivatives in terms of mutual miscibility of octanol and water phase. …; conditions: pH 5.2
# [49] = method code SF-AS, from DOI: 10.1021/jm00212a022, PMID: 836502
# [50] = method code SF, from PMID: 23342302; conditions: pH 7.4
smiles,measurement,setting,value
Cc1cn([C@H]2O[C@@H](CO)[C@H](O)[C@H]2F)c(=O)[nH]c1=O,logP,,-0.51
CCCCc1ccc(C(=O)O)cc1,logP,[1],3.7
C=C(C)C1CCC(C)(O)C1C (stereo unspecified),logP,[2],2.87
O=C(O)CCCc1ccccc1,logD,[3],2.32
C1COCCOCCOCCOCCO1,logP,[4],-0.48
Cc1noc(NS(=O)(=O)c2ccc(N)cc2)c1C,logP,[5],0.83
Cc1[nH]cnc1CSCCNc1cc[nH]c(=O)n1,logP,[6],-0.4
CN(C)/N=N/c1ccc(CC(=O)O)cc1,logP,[7],1.38
CCC(N)Cc1ccccc1 (stereo unspecified),logP,[8],2.28
Nc1nc(Cl)nc2c1ncn2[C@@H]1O[C@H](CO)[C@@H](O)[C@@H]1F,logD,[9],0.5
CCOP(=S)(OCC)Oc1ccccc1,logP,[10],3.46
Cc1nc2c(N)ncnc2n1[C@@H]1O[C@H](CO)C[C@@H]1F,logD,[11],0.1
CCC(Oc1ccc(Cl)cc1C)C(=O)O (stereo unspecified),logP,[12],3.47
C=CCC1(C(=O)NC(N)=O)CC(C)OC1=O (stereo unspecified),logD,[13],0.36
CC1=CC(=O)c2ccccc2C1=O,logP,[14],1.88
COC(=O)/C=C/c1ccc(O)c(OC)c1,logP,[15],1.2
CCCCCCCCCC(=O)O,logP,[16],3.91
CCN1CCCc2cc(F)ccc21,logD,[17],2.82
COc1ccc(NS(=O)(=O)c2ccc(N)cc2)nn1,logD,[18],0.4
Cc1c(O)c(=O)ccn1CCc1c[nH]cn1,logD,[19],-0.05
CCCC(=O)c1ccccc1,logP,[20],2.66
CCOP(N)(=O)O/N=C(/C#N)c1ccccc1 (stereo unspecified),logP,[21],0.72
C=CCC1(CC(=C)Br)C(=O)NC(=O)N(C)C1=O (stereo unspecified),logD,[22],1.78
CN(C)C(=O)CNCc1ccccc1,logP,[23],1.11
CC(=O)OCC(Cn1ccnc1[N+](=O)[O-])OC(C)=O (stereo unspecified),logP,[24],-0.05
CC1(Br)C(=O)NC(=O)N2C3CC(N=[N+]=[N-])C(COC21)O3 (stereo unspecified),logP,[25],1.11
COC(=O)N(C)SN(C)C(=O)O/N=C(\SC)C(=O)N(C)C,logP,[26],-0.07
CN(C)C(=O)c1cc(N2CC2)c([N+](=O)[O-])cc1[N+](=O)[O-],logD,[27],0.63
COc1ccc(NC(=O)C2CC2)cn1,logP,[28],1.57
O=C(O)CNC(=O)OCc1ccccc1,logP,[29],1.47
FCCOC1CCC=CCCC1 (stereo unspecified),logD,[30],1.68
CC[C@@H]1C(=O)OC[C@@H]1Cc1cncn1C,logP,[31],0.66
C=C(C)C(=O)OC1CCCCC1,logP,[32],2.98
CC(C)(C)c1ccc(NC(N)=S)cc1,logP,[33],2.6
Nc1ncnc2c1nc(Br)n2[C@@H]1O[C@@H]2COP(=O)(O)O[C@H]2[C@H]1O,logD,[34],-2.44
CC1=CC(=O)C(C(C)C)=CC1=O,logP,[35],2.2
Nc1nc2c(ncn2C2CC(O)C(CO)O2)c(=O)[nH]1 (stereo unspecified),logD,[36],-1.3
CN1C(=O)CC(c2ccccc2)C1=O (stereo unspecified),logD,[37],0.68
CCC1(CC(C)C)C(=O)NC(=O)NC1=O,logP,[38],1.69
Cc1c(I)c(=O)n(-c2ccccc2)n1C,logP,[39],1.27
O=c1ccc2ccc3occc3c2o1,logP,[40],2.08
Cc1c(CC(=O)O)sc2ccc(Cl)cc12,logD,[41],3.12
CCc1nnc(NS(=O)(=O)c2ccc(N)cc2)s1,logD,[42],1.01
CC(O)Cn1cnc2c1c(=O)n(C)c(=O)n2C (stereo unspecified),logD,[43],-0.77
CCNc1nc(NC(C)(C)C)nc(SC)n1,logP,[44],3.43
NC12CC3CC(CC(C3)C1)C2,logP,[45],2.54
CCCCCCCCC(Cl)C(Cl)(Cl)Cl (stereo unspecified),logP,[46],5.93
CCCOC(=O)[C@@]1(C)[C@H](CO)CC=[N+]1[O-],logD,[47],-0.82
CC(=O)Nc1nc2c(ncn2COCCO)c(=O)[nH]1,logD,[48],-1.3
CCCOc1cc(N)ccc1C(=O)O,logP,[49],1.53
Nc1nc(=O)c2ncn(CCC(CO)CF)c2[nH]1 (stereo unspecified),logD,[50],-0.87
